Holding throughout (assay type): physicochemical
Series [1] is described as follows: Stress studies (relative humidity / temperature), solid form by XRPD. Particulars: for Result (solid form by XRPD after stress): glassy material. As for the experimental part: Vapor Stress (VS) Experiments: Form A was dispensed into a small vial, which was placed, uncapped, in a larger vial containing a diffusing solvent. The larger vial was sealed and stored at ambient temperature. Samples were also stressed in ovens at elevated temperatures and under different relative humidity conditions.
X-ray powder diffraction analyses were performed using a Shimadzu XRD-6000 X-ray powder diffractometer using Cu Kα radiation. The instrument is equipped with a long fine focus X-ray tube. The tube voltage and amperage were set to 40 kV and 40 mA, respectively. The divergence and scattering slits were set at 1° and the receiving slit was set at 0.15 mm. Diffracted radiation was detected by a NaI scintillation detector. A θ-2θ continuous scan at 3°/min (0.4 sec/0.02° step) from 2.5 to 40 °2θ was used. A silicon standard was analyzed to check the instrument alignment. Data were collected and analyzed using XRD-6000 v. 4.1. Samples were prepared for analysis by placing them in an aluminum holder with silicon insert.

Series [2] is described as follows: Solubility estimates in test solvents (aliquot addition, visual inspection). Particulars: room temperature, approximate. The method, then: A weighed sample of Compound I was treated with aliquots of the test solvent at room temperature. The mixture was sonicated between aliquot additions to facilitate dissolution. Complete dissolution of the test material was determined by visual inspection. Solubilities were estimated from these experiments based on the total solvent used to provide complete dissolution. The actual solubility may be greater than those calculated because of the use of solvent aliquots that were too large or due to a slow rate of dissolution. […] If complete dissolution was achieved as a result of only one aliquot addition, the solubility is expressed as “greater than.”

A short description of series [3]: Moisture sorption/desorption analysis (VTI SGA-100). Conditions: for moisture sorption behaviour in words: moisture sorption/desorption analysis; for solid form of the sample after moisture sorption/desorption (XRPD): post moisture sorption/desorption sample. As for the experimental part:
Moisture sorption/desorption data were collected on a VTI SGA-100 Vapor Sorption Analyzer. Sorption and desorption data were collected over a range of 5% to 95% relative humidity (RH) at 10% RH intervals under a nitrogen purge. Samples were not dried prior to analysis. Equilibrium criteria used for analysis were less than 0.0100% weight change in 5 minutes, with a maximum equilibration time of 3 hours if the weight criterion was not met. Data were not corrected for the initial moisture content of the samples. NaCl and PVP were used as calibration standards.

A short description of series [4]: Thermal analysis (DSC, TGA, melting point) - thermal stability. Conditions: solid phase. As for the experimental part: Differential scanning calorimetry was performed using a TA Instruments differential scanning calorimeter 2920. The sample was placed into an aluminum DSC pan, and the weight accurately recorded. The pan was covered with a lid and then crimped. The sample cell was equilibrated at ambient temperature and heated under a nitrogen purge at a rate of 10° C./min, up to a final temperature of 350° C. Indium metal was used as the calibration standard. Reported temperatures are at the transition maxima.
Thermogravimetric analyses were performed using a TA Instruments 2950 thermogravimetric analyzer. Each sample was placed in an aluminum sample pan and inserted into the TG furnace. The furnace was first equilibrated at ambient temperature, then heated under nitrogen at a rate of 10° C./min, up to a final temperature of 350° C. Nickel and Alumel™ were used as the calibration standards.
Hot stage microscopy was performed using a Linkam hot stage mounted on a Leica DM LP microscope. Samples were observed using a 20× objective with a lambda plate with crossed polarizers. Samples were sandwiched between two coverslips and visually observed as the stage was heated. Images were captured using a SPOT Insight™ color digital camera with SPOT Software v. 3.5.8. The hot stage was calibrated using sulfapyridine and vanillin USP melting point standards.

“Also recorded” adds a separate entry of the source. Where a name gives a salt, the structure may show the parent alone. Read-outs that look alike come from different tables or passages of the source.

A word on the solubility: it is how much of the substance goes into solution per volume.

On to `Cn1c(=O)cc(N2CCC[C@@H](N)C2)n(Cc2ccccc2C#N)c1=O.O=C(O)c1ccccc1` [Compound 1924-83-05], for which the “Result (solid form by XRPD after stress)” value in series [1] (stress 40° C., 9 days) was “form A”.
In the case of `Cn1c(=O)cc(N2CCC[C@@H](N)C2)n(Cc2ccccc2C#N)c1=O.O=C(O)c1ccccc1` [Compound 1924-83-06], the “Result (solid form by XRPD after stress)” value in series [1] (stress 79% RH/40° C., 9 days) is recorded as “form A”.
For the molecule `Cn1c(=O)cc(N2CCC[C@@H](N)C2)n(Cc2ccccc2C#N)c1=O.O=C(O)c1ccccc1` [Compound 1966-27-01], in series [1] (stress 79% RH/60° C., 1 hr), the “Result (solid form by XRPD after stress)” value is recorded as “form A”.
For `Cn1c(=O)cc(N2CCC[C@@H](N)C2)n(Cc2ccccc2C#N)c1=O.O=C(O)c1ccccc1` [Compound 1966-27-02], the “Result (solid form by XRPD after stress)” value in series [1] (stress 79% RH/60° C., 3 hrs) is reported as “form A”.
On to `Cn1c(=O)cc(N2CCC[C@@H](N)C2)n(Cc2ccccc2C#N)c1=O` [Form A, benzoate salt of 2-[[6-[(3R)-3-amino-1-piperidinyl]-3,4-dihydro-3-methyl-2,4-dioxo-1(2H)-pyrimidinyl]methyl]-benzonitrile], for which the solubility is < 3000 µg/mL in series [2] (ethanol, organic solvent or mixture, thermodynamic from solid, solvent EtOH, read-out: Solubility); 13000 µg/mL in series [2] (methanol, organic solvent or mixture, thermodynamic from solid, solvent MeOH, read-out: Solubility); < 1000 µg/mL in series [2] (organic solvent or mixture, thermodynamic from solid, solvent CAN, read-out: Solubility); < 3000 µg/mL in series [2] (organic solvent or mixture, thermodynamic from solid, solvent CH2Cl2, read-out: Solubility); 6000 µg/mL in series [2] (organic solvent or mixture, thermodynamic from solid, solvent DMF, read-out: Solubility); < 3000 µg/mL in series [2] (organic solvent or mixture, thermodynamic from solid, solvent EtOAc, read-out: Solubility). Also, the solubility is < 1000 µg/mL in series [2] (organic solvent or mixture, thermodynamic from solid, solvent IPA, read-out: Solubility); 3000 µg/mL in series [2] (organic solvent or mixture, thermodynamic from solid, solvent MEK, read-out: Solubility); < 3000 µg/mL in series [2] (organic solvent or mixture, thermodynamic from solid, solvent MIBK, read-out: Solubility); < 1000 µg/mL in series [2] (organic solvent or mixture, thermodynamic from solid, solvent THF, read-out: Solubility); < 3000 µg/mL in series [2] (organic solvent or mixture, thermodynamic from solid, solvent acetone, read-out: Solubility); < 1000 µg/mL in series [2] (organic solvent or mixture, thermodynamic from solid, solvent dioxane, read-out: Solubility). The “solubility” value in series [2] (solvent CH2Cl2, listed as Compound I Form A) was <3000 µg/mL; in series [2] (solvent EtOAc, listed as Compound I Form A), <3000 µg/mL; in series [2] (solvent EtOH, listed as Compound I Form A) it was <3000 µg/mL; in series [2] (solvent MIBK, listed as Compound I Form A) it was <3000 µg/mL; in series [2] (solvent acetone, listed as Compound I Form A), <3000 µg/mL; in series [2] (thermodynamic from solid, solvent water, read-out: Solubility) it was 8000 µg/mL. The “Weight chg (%)” value in series [3] (RH 5.18%, 25.20 °C, 14.1 min) is given as 0.002%; in series [3] (desorption, RH 4.82%, 25.20 °C, 163.7 min), −0.004%; in series [3] (desorption, RH 14.97%, 25.21 °C, 153.7 min), 0.032%; in series [3] (desorption, RH 24.96%, 25.22 °C, 146.7 min), 0.035%; in series [3] (desorption, RH 34.97%, 25.21 °C, 139.7 min), 0.008%; in series [3] (desorption, RH 45.01%, 25.22 °C, 131.7 min), 0.012%. The “Weight chg (%)” value was determined as 0.014% in series [3] (desorption, RH 55.13%, 25.21 °C, 123.7 min); 0.016% in series [3] (desorption, RH 65.04%, 25.21 °C, 114.7 min); 0.017% in series [3] (desorption, RH 75.06%, 25.21 °C, 105.7 min); 0.019% in series [3] (desorption, RH 85.20%, 25.21 °C, 97.0 min); 0.001% in series [3] (sorption, RH 14.96%, 25.22 °C, 21.1 min); 0.001% in series [3] (sorption, RH 24.97%, 25.20 °C, 28.2 min). The “Weight chg (%)” value in series [3] (sorption, RH 35.05%, 25.20 °C, 35.2 min) is recorded as 0.002%; in series [3] (sorption, RH 44.89%, 25.20 °C, 42.2 min) it was 0.004%; in series [3] (sorption, RH 54.85%, 25.19 °C, 51.2 min), 0.035%; in series [3] (sorption, RH 64.93%, 25.21 °C, 60.2 min), 0.039%; in series [3] (sorption, RH 74.86%, 25.20 °C, 69.2 min), 0.041%; in series [3] (sorption, RH 84.87%, 25.21 °C, 78.2 min), 0.045%. Moreover, the “Weight chg (%)” value is listed as 0.049% in series [3] (sorption, RH 94.56%, 25.21 °C, 87.2 min) and 0.000% in series [3] (start, RH 9.14%, 25.20 °C, 0.1 min). For the same molecule, in series [3] (between 9% and 95% RH), the weight loss entry was “about 0.05%”. In addition, in series [3] (from ambient conditions to 55% RH), the initial weight gain entry is reported as “approximately 0.035%”. Moreover, in series [3], the “moisture sorption behaviour in words” value is reported as “variable hydrate”. Further, in series [3], the “solid form of the sample after moisture sorption/desorption (XRPD)” value was “form A”. In addition, the “phase change upon RH stress (XRPD)” value in series [1] (various RH conditions at room temperature, several weeks) was “none of these samples had undergone a phase change”. Moreover, in series [4], the “thermally stable (temperature)” value is “above 172 °C”.
With `Cn1c(=O)cc(N2CCC[C@@H](N)C2)n(Cc2ccccc2C#N)c1=O` [amorphous Form 1, benzoate salt of 2-[[6-[(3R)-3-amino-1-piperidinyl]-3,4-dihydro-3-methyl-2,4-dioxo-1(2H)-pyrimidinyl]methyl]-benzonitrile], the “Weight chg (%)” value in series [3] (Sample RH 5.25, 25.00 °C, 151.0 min) is −0.953%; in series [3] (desorption, Sample RH 5.06, 24.99 °C, 2238.3 min), −2.007%; in series [3] (desorption, Sample RH 15.16, 24.99 °C, 2221.4 min), −1.980%; in series [3] (desorption, Sample RH 24.87, 24.99 °C, 2199.9 min), −1.946%; in series [3] (desorption, Sample RH 34.87, 24.99 °C, 2081.7 min), −1.737%; in series [3] (desorption, Sample RH 45.08, 25.01 °C, 1894.1 min), −1.208%. Further, the “Weight chg (%)” value is −0.421% in series [3] (desorption, Sample RH 55.16, 25.00 °C, 1706.6 min); 0.655% in series [3] (desorption, Sample RH 65.12, 24.98 °C, 1517.0 min); 1.908% in series [3] (desorption, Sample RH 75.25, 24.98 °C, 1327.5 min); 3.348% in series [3] (desorption, Sample RH 85.49, 24.98 °C, 1139.9 min); −0.456% in series [3] (sorption, Sample RH 14.81, 25.00 °C, 197.3 min); 0.025% in series [3] (sorption, Sample RH 24.80, 24.99 °C, 253.1 min). Also, the “Weight chg (%)” value was found to be 0.569% in series [3] (sorption, Sample RH 34.93, 24.98 °C, 329.5 min); 1.669% in series [3] (sorption, Sample RH 44.84, 24.99 °C, 508.3 min); 3.680% in series [3] (sorption, Sample RH 54.90, 24.98 °C, 603.1 min); 5.782% in series [3] (sorption, Sample RH 64.85, 24.97 °C, 655.1 min); 8.432% in series [3] (sorption, Sample RH 74.54, 24.98 °C, 723.7 min); 10.125% in series [3] (sorption, Sample RH 84.54, 24.98 °C, 764.6 min). In addition, the “Weight chg (%)” value came to 5.474% in series [3] (sorption, Sample RH 94.62, 24.95 °C, 952.3 min) and 0.000% in series [3] (start, Sample RH 53.89, 24.98 °C, 0.1 min). Further, the weight gain entry in series [3] (between 5% and 95% RH) is “about 6.5%”; in series [3] (under 85% RH), 10%. For the same molecule, the weight loss entry in series [3] (between 85% and 95% RH) is listed as “about 5%”. In addition, the initial weight loss result in series [3] (from ambient conditions to 5% RH) was “approximately 1%”. The “moisture sorption behaviour in words” value in series [3] is given as “very hygroscopic”. In addition, the “solid form of the sample after moisture sorption/desorption (XRPD)” value in series [3] is given as “matched form A; also recorded: tentatively identified as containing form A”.

These data come from patent US8324383B2, “Methods of making polymorphs of benzoate salt of 2-[[6-[(3R)-3-amino-1-piperidinyl]-3,4-dihydro-3-methyl-2,4-dioxo-1(2H)-pyrimidinyl]methyl]-benzonitrile” (Takeda Pharmaceutical Company Limited, priority 2006, dated 2012).
